Each structure is given as a SMILES string.

In one data set the test system is HeLa cells. Nature of the data set: Assay 1 cell proliferation measurement (CTG, 72 h), HeLa. In kind it is cell-based, human. The settings on record: Homo sapiens, HeLa; Assay 1, 72 h, Cell Titer Glo; read-out: HeLa IC50 [nM] (Cervical cancer). The procedure, abridged:
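Cells were plated, grown overnight at 37 °C, then treated 72 h with a 10-step 2.5-fold dilution series from 100 nM maximum final (0.3% DMSO vehicle). Viability was read by CellTiter-Glo luminescence. IC50 from a 4-parameter fit, normalised to a 0 h plate (maximum inhibition) and DMSO control (minimum inhibition).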
(ATP-based viability assays read luminescence as a measure of living cells.)

The next data set concerns IGR37 cells. Nature of the data set: Assay 1 cell proliferation measurement (CTG, 72 h), IGR37. The data set is classed as cell-based. The settings on record: Homo sapiens, IGR-37, Cell Titer Glo, read-out: IGR37 IC50 [nM] (melanoma).
For a further data set, the system named is DKMG cells. Nature of the data set: Assay 2 cell proliferation measurement, DKMG. The data set is classed as cell-based. The settings on record: Homo sapiens, Glioma_astrocytoma, read-out: Anti-proliferation IC50 [nM] DKMG. Here is the method: Cell Proliferation Measurement
The antiproliferative activity of the compounds of the general formula (I) was examined in vitro in human cancer cells. For this purpose, 500 cells, including HeLa cells, A2058 cells, DU145 cells, HMCB cells, IGR37 cells, NCIH1734 cells, OSRC2 cells, or 750 cells, including CAL51 cells, COL0741 cells, DBTRG05MG cells, DKMG cells, G292CLONEA141B1 cells, GB1 cells, HEL cells, HEL9217 cells, JHUEM1 cells, L3.3 cells, LI7 cells, TE4 cells, or 1000 cells, including 8505C cells, HUT78 cells, NCIH1563 cells, NCIH2122 cells, NCIH2172 cells, RVH421 cells, SKMEL3 cells, or 1500 cells, including C32 cells, HS578T cells, JHOM1 cells, NCIH196 cells, OVKATE cells, were plated in 384-well plates with appropriate growth medium and incubated at 37° C. overnight. After 24 h, the cells on the test plate were treated with the compounds of the general formula (I) as and incubated at 37° C. for 72 h. The compounds were added to the cells by means of an HP D300 digital dispenser in a 10 (or more)-step dilution series. As control, the cells were treated with vehicle (DMSO at 0.3% final concentration). After 72 h, the cells were treated with 20 μl/well of 50% CTG solution in PBS (Promega Cell Titer Glo (catalogue #G755B and G756B)) and incubated at room temperature for 10 min, and luminescence was measured by means of a VICTOR V (Perkin Elmer), in order to determine cell viability at the end of treatment. The percentage effect on cell growth and the IC50 derived therefrom were determined for each test substance using the values from untreated wells (=percent viability). The IC50 values were calculated using a 4-parameter fit.

A further data set has as its system HEL 92.1.7 cells. Nature of the data set: Assay 1 cell proliferation measurement, HEL 92.1.7. In kind it is cell-based. The settings on record: Homo sapiens, Erythroleukemia, read-out: Anti-proliferation IC50 [nM] HEL 92.1.7.
Data set [1] in a line: Assay 7 in vivo pharmacokinetics in non-rodents (dogs). On the set-up: species or system Beagle dogs. The settings on record: i.v. Here is the method: Assay 7 In Vivo Pharmacokinetics in Non-Rodents (e.g. Dogs)
For in vivo pharmacokinetic experiments test compounds were administered to non-rodents (e.g. female Beagle dogs) intravenously (i.v.) at doses of 0.1 to 1 mg/kg and intragastrally (i.g.) at doses of 0.3 to 3 mg/kg formulated as solutions using solubilizers such as e.g. PEG400 in well-tolerated amounts and are usually given as short term infusion (15 min).
Blood samples were taken e.g. at 2 min, 8 min, 15 min, 30 min, 45 min, 1 h, 2 h, 4 h, 6 h, 8 h and 24 h after dosing from the vena saphena.
For pharmacokinetics after intragastral administration test compounds were given intragastrally to fasted non-rodents (e.g. dogs). Blood samples were taken e.g. at 5 min, 15 min, 30 min, 45 min, 1 h, 2 h, 4 h, 6 h, 8 h and 24 h after dosing. […] Blood was collected into Lithium-Heparin tubes (Monovetten@, Sarstedt) and centrifuged for 15 min at 3000 rpm. A small aliquot (e.g. 100 μL) from the supernatant (plasma) was taken and precipitated by addition of an aliquot ice cold acetonitrile (e.g. of 400 μL) and frozen at −20° C. over night. Samples were subsequently thawed and centrifuged at 3000 rpm, 4° C. for 20 minutes. Aliquots of the supernatants were taken for analytical testing using an Agilent HPLC-system with LCMS/MS detection. PK parameters were calculated by non-compartmental analysis using a PK calculation software.
PK parameters derived from concentration-time profiles after i.v.: CLplasma: Total plasma clearance of test compound (in L/kg/h); CLblood: Total blood clearance of test compound: CLplasma*Cp/Cb (abbreviation: CLp;) in L/kg/h) with Cp/Cb being the ratio of concentrations in plasma and blood.
PK parameters calculated from concentration time profiles after […].: Cmax: Maximal plasma concentration (in mg/L); Cmaxnorm: Cmax divided by the administered dose (in kg/L); Tmax: Time point at which Cmax was observed (in h). Parameters calculated from both, i.v. and i.g. concentration-time profiles: AUCnorm: Area under the concentration-time curve from t=0 h to infinity (extrapolated) divided by the administered dose (in kg*h/L); AUC(0-tlast)norm: Area under the concentration-time curve from t=0 h to the last time point for which plasma concentrations could be measured divided by the administered dose (in kg*h/L); t1/2: terminal half-life (in h); F: oral bioavailability: AUCnorm after intragastral administration divided by AUCnorm after intravenous administration (in %).

Consider `C[C@@H]1OC(=O)NN=C1c1ccc(-n2ccc(C(F)(F)F)n2)c(C(F)(F)F)c1` [Example 265, (6S)-6-Methyl-5-{3-(trifluoromethyl)-4-[3-(trifluoromethyl)-1H-pyrazol-1-yl]phenyl}-3,6-dihydro-2H-1,3,4-oxadiazin-2-one], for which the results for the IC50 with HeLa cells, in the data set on IGR37 cells and in the data set on DKMG cells were 2 nM, 7 nM and 59 nM, respectively.
On to `O=C1NN=C(c2ccc(-c3ccc(F)cc3)c(C(F)(F)F)c2)CO1` [Example 3, 5-[4′-Fluoro-2-(trifluoromethyl)biphenyl-4-yl]-3,6-dihydro-2H-1,3,4-oxadiazin-2-one], for which the IC50 worked out at 3 nM with HeLa cells and 25 nM with HEL 92.1.7 cells. Further, in data set [1], the “CLblood dog” value was 39.8 mL/min/kg.
For the compound `C[C@@H]1OC(=O)NN=C1c1ccc(-c2ccc(F)cc2)c(C(F)(F)F)c1` [Example 135, (6S)-5-[4′-Fluoro-2-(trifluoromethyl)biphenyl-4-yl]-6-methyl-3,6-dihydro-2H-1,3,4-oxadiazin-2-one], the IC50 worked out at 1 nM with HeLa cells, 3 nM in the data set with IGR37 cells and 22 nM in the data set with DKMG cells. The “CLblood dog” value in data set [1] is 8.17 mL/min/kg.
On to `O=C1NN=C(c2ccc(-c3ccc(Cl)cc3)c(C(F)(F)F)c2)CO1` [Example 31, 5-[4′-Chloro-2-(trifluoromethyl)biphenyl-4-yl]-3,6-dihydro-2H-1,3,4-oxadiazin-2-one], for which the values for the IC50 in the data set on HeLa cells, in the data set with IGR37 cells and in the data set on HEL 92.1.7 cells were 4 nM, 14 nM and 47 nM, respectively. Also, in data set [1], the “CLblood dog” value was determined as 8.17 mL/min/kg.
For `O=C1NN=C(c2ccc(-c3cnn(C(F)F)c3)c(C(F)(F)F)c2)CO1` [Example 146, 5-{4-[1-(Difluoromethyl)-1H-pyrazol-4-yl]-3-(trifluoromethyl)phenyl}-3,6-dihydro-2H-1,3,4-oxadiazin-2-one], the IC50 in the data set with HeLa cells turned out to be 1 nM; in the data set with IGR37 cells, 2 nM; in the data set on HEL 92.1.7 cells, 13 nM; in the data set with DKMG cells, 13 nM. In addition, the “CLblood dog” value in data set [1] was 47.3 mL/min/kg.

The values above are taken from patent US11427553B2, “Dihydrooxadiazinones” (Bayer Aktiengesellschaft, priority 2017, dated 2022).
